Values after ≈ are worked out from the molar mass of the structure shown.
Key:
Assay type in all cases: cell-based
[1] = system: Escherichia coli K12 C600 IAM 1264; assay: Antibacterial activity, agar-dilution MIC, organism No. 6; conditions: Escherichia coli, IAM1264; Organism No. 6, bouillon-agar; read-out: Minimum Inhibitory Concentration
Procedure, shortened: (§1)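 Values come from agar-dilution plates prepared with bouillon agar; they represent the least specimen concentration (μg/ml of medium) giving inhibition.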

[2] = system: Bacillus subtilis ATCC 6633; assay: Antibacterial activity, agar-dilution MIC, organism No. 14; conditions: Bacillus subtilis, ATCC6633; Organism No. 14, bouillon-agar; read-out: Minimum Inhibitory Concentration
Procedure, shortened: as §1

[3] = system: Serratia marcescens IAM 1184; assay: Antibacterial activity, agar-dilution MIC, organism No. 13; conditions: Serratia marcescens, IAM1184; Organism No. 13, bouillon-agar; read-out: Minimum Inhibitory Concentration
Procedure, shortened: as §1

[4] = system: Pseudomonas aeruginosa PAO 1; assay: Antibacterial activity, agar-dilution MIC, organism No. 17; conditions: Pseudomonas aeruginosa, PAO1; Organism No. 17, bouillon-agar; read-out: Minimum Inhibitory Concentration
Procedure, shortened: as §1

[5] = system: Salmonella shottmuelleri 8006; assay: Antibacterial activity, agar-dilution MIC, organism No. 11; conditions: Salmonella, 8006; Organism No. 11, bouillon-agar; read-out: Minimum Inhibitory Concentration
Procedure, shortened: as §1

[6] = system: Mycoplasma pneumoniae IID817; assay: Antimycoplasmal activity, MIC by phenol red colour change, organism No. 28; conditions: Mycoplasma, IID817; Organism No. 28, PPLO broth + 1% glucose, 37° C.; read-out: Minimum Inhibitory Concentration (MIC)
Experimental: Mycoplasma pneumoniae IID817 was used as the test microorganism in a culture medium prepared by adding 1% of glucose to "PPLO broth (manufactured by Difco Co.) liquid culture medium" at 37° C. with phenol red as an indicator, thereby culturing the test microorganism.

Proteus vulgaris OX-19 = assay: Antibacterial activity, agar-dilution MIC, organism No. 20; conditions: Proteus vulgaris, OX19; Organism No. 20, bouillon-agar; read-out: Minimum Inhibitory Concentration
Procedure, shortened: as §1

[7] = system: Salmonella enteritidis G 14; assay: Antibacterial activity, agar-dilution MIC, organism No. 12; conditions: Salmonella enterica, ENTERITIDIS; Organism No. 12, bouillon-agar; read-out: Minimum Inhibitory Concentration
Procedure, shortened: as §1

[8] = system: Aspergillus niger IFO 6342; assay: Antifungal activity, agar-dilution MIC, organism No. 30; conditions: Aspergillus niger, IFO6342; Organism No. 30, bouillon-agar; read-out: Minimum Inhibitory Concentration
Procedure, shortened: as §1

Proteus vulgaris HX-19 = assay: Antibacterial activity, agar-dilution MIC, organism No. 21; conditions: Proteus vulgaris, HX19; Organism No. 21, bouillon-agar; read-out: Minimum Inhibitory Concentration
Procedure, shortened: as §1

[9] = system: Klebsiella pneumoniae PCI-602; assay: Antibacterial activity, agar-dilution MIC, organism No. 7; conditions: Klebsiella pneumoniae, PCI602; Organism No. 7, bouillon-agar; read-out: Minimum Inhibitory Concentration
Procedure, shortened: as §1

[10] = system: Enterobacter aerogenes ATCC 13048; assay: Antibacterial activity, agar-dilution MIC, organism No. 23; conditions: Klebsiella aerogenes, ATCC13048; Organism No. 23, bouillon-agar; read-out: Minimum Inhibitory Concentration
Procedure, shortened: as §1

[11] = system: Streptococcus pyogenes IFO 3340; assay: Antibacterial activity, agar-dilution MIC, organism No. 26; conditions: Streptococcus pyogenes, IFO3340; Organism No. 26, bouillon-agar; read-out: Minimum Inhibitory Concentration
Procedure, shortened: as §1

[12] = system: Staphylococcus aureus MS 353; assay: Antibacterial activity, agar-dilution MIC, organism No. 3; conditions: Staphylococcus aureus, MS353; Organism No. 3, bouillon-agar; read-out: Minimum Inhibitory Concentration
Procedure, shortened: as §1

[13] = system: Candida albicans IAM 4905; assay: Antifungal activity, agar-dilution MIC, organism No. 29; conditions: Candida albicans, IAM4905; Organism No. 29, bouillon-agar; read-out: Minimum Inhibitory Concentration
Procedure, shortened: as §1

[14] = system: Proteus rettgeri IFO 3850; assay: Antibacterial activity, agar-dilution MIC, organism No. 22; conditions: Providencia rettgeri, IFO3850; Organism No. 22, bouillon-agar; read-out: Minimum Inhibitory Concentration
Procedure, shortened: as §1

[15] = system: Streptococcus faecium IFO 3826; assay: Antibacterial activity, agar-dilution MIC, organism No. 27; conditions: Enterococcus faecium, IFO3826; Organism No. 27, bouillon-agar; read-out: Minimum Inhibitory Concentration
Procedure, shortened: as §1

[16] = system: Staphylococcus aureus FDA 209PJc-1; assay: Antibacterial activity, agar-dilution MIC, organism No. 1; conditions: Staphylococcus aureus, FDA209PJC1; Organism No. 1, bouillon-agar; read-out: Minimum Inhibitory Concentration
Procedure, shortened: as §1

Enterobacter cloacae 963 = assay: Antibacterial activity, agar-dilution MIC, organism No. 24; conditions: Enterobacter cloacae, 963; Organism No. 24, bouillon-agar; read-out: Minimum Inhibitory Concentration
Procedure, shortened: as §1

[17] = system: Salmonella paratyphi-A 1015; assay: Antibacterial activity, agar-dilution MIC, organism No. 10; conditions: Salmonella enterica, PARATYPHI, read-out: Minimum Inhibitory Concentration
Procedure, shortened: as §1

[18] = system: Escherichia coli NIHJ-JC-2; assay: Antibacterial activity, agar-dilution MIC, organism No. 5; conditions: Escherichia coli, NIHJJC2; Organism No. 5, bouillon-agar; read-out: Minimum Inhibitory Concentration
Procedure, shortened: as §1

[19] = system: Micrococcus luteus ATCC 9341; assay: Antibacterial activity, agar-dilution MIC, organism No. 25; conditions: Micrococcus luteus, ATCC9341; Organism No. 25, bouillon-agar; read-out: Minimum Inhibitory Concentration
Procedure, shortened: as §1

[20] = system: Pseudomonas aeruginosa IFO 3445; assay: Antibacterial activity, agar-dilution MIC, organism No. 15; conditions: Pseudomonas aeruginosa, IFO3445; Organism No. 15, bouillon-agar; read-out: Minimum Inhibitory Concentration
Procedure, shortened: as §1

[21] = system: Salmonella typhimurium IID 971; assay: Antibacterial activity, agar-dilution MIC, organism No. 8; conditions: Salmonella enterica; Organism No. 8, bouillon-agar; read-out: Minimum Inhibitory Concentration
Procedure, shortened: as §1

[22] = system: Proteus mirabilis IFO 3849; assay: Antibacterial activity, agar-dilution MIC, organism No. 19; conditions: Proteus mirabilis, IFO3849; Organism No. 19, bouillon-agar; read-out: Minimum Inhibitory Concentration
Procedure, shortened: as §1

[23] = system: Staphylococcus aureus Terajima; assay: Antibacterial activity, agar-dilution MIC, organism No. 2; conditions: Staphylococcus aureus; Organism No. 2, bouillon-agar; read-out: Minimum Inhibitory Concentration
Procedure, shortened: as §1

[24] = system: Proteus morganii IFO 3848; assay: Antibacterial activity, agar-dilution MIC, organism No. 18; conditions: Morganella morganii, IFO3848; Organism No. 18, bouillon-agar; read-out: Minimum Inhibitory Concentration
Procedure, shortened: as §1

[25] = system: Pseudomonas aeruginosa NCTC 10490; assay: Antibacterial activity, agar-dilution MIC, organism No. 16; conditions: Pseudomonas aeruginosa, NCTC10490; Organism No. 16, bouillon-agar; read-out: Minimum Inhibitory Concentration
Procedure, shortened: as §1

Salmonella typhi 901 = assay: Antibacterial activity, agar-dilution MIC, organism No. 9; conditions: Salmonella enterica, TYPHI, read-out: Minimum Inhibitory Concentration
Procedure, shortened: as §1

[26] = system: Streptococcus pyogenes Cook; assay: Antibacterial activity, agar-dilution MIC, organism No. 4; conditions: Streptococcus pyogenes; Organism No. 4, bouillon-agar; read-out: Minimum Inhibitory Concentration
Procedure, shortened: as §1

SMILES	MIC [1] [µg/mL]	MIC [2] [µg/mL]	MIC [3] [µg/mL]	MIC [4] [µg/mL]	MIC [5] [µg/mL]	MIC [6] [µg/mL]	MIC (Proteus vulgaris OX-19) [µg/mL]	MIC [7] [µg/mL]	MIC [8] [µg/mL]	MIC (Proteus vulgaris HX-19) [µg/mL]	MIC [9] [µg/mL]	MIC [10] [µg/mL]	MIC [11] [µg/mL]	MIC [12] [µg/mL]	MIC [13] [µg/mL]	MIC [14] [µg/mL]	MIC [15] [µg/mL]	MIC [16] [µg/mL]	MIC (Enterobacter cloacae 963) [µg/mL]	MIC [17] [µg/mL]	also measured
[C-]#[N+]C12CC3(/C=C/C(=O)Nc4cccc(OC)c4)OC3C1O2 (stereo not drawn) [compound 54]	50 (≈ 168 µM)	3.13 (≈ 10.5 µM)	100 (≈ 335 µM)	> 200	0.39 (≈ 1.31 µM)	< 0.2	0.39 (≈ 1.31 µM)	3.13 (≈ 10.5 µM)	1.56 (≈ 5.23 µM)	0.3 (≈ 1.01 µM)	0.2 (≈ 0.67 µM)	> 200	0.39 (≈ 1.31 µM)	0.2 (≈ 0.67 µM)	0.79 (≈ 2.65 µM)	6.25 (≈ 21 µM)	25 (≈ 83.8 µM)	0.39 (≈ 1.31 µM)	> 200	0.78 (≈ 2.61 µM)	MIC [18]: 50 µg/mL (≈ 168 µM); MIC [19]: 0.05 µg/mL (≈ 0.168 µM); MIC [20]: > 200 µg/mL; MIC [21]: 6.25 µg/mL (≈ 21 µM); MIC [22]: > 200 µg/mL; MIC [23]: 1.56 µg/mL (≈ 5.23 µM); MIC [24]: 0.39 µg/mL (≈ 1.31 µM); MIC [25]: > 200 µg/mL; MIC (Salmonella typhi 901): 3.13 µg/mL (≈ 10.5 µM); MIC [26]: 25 µg/mL (≈ 83.8 µM)
[C-]#[N+]C12CC3(/C=C/C(=O)Nc4cc(C(=O)OC)ccc4OC)OC3C1O2 (stereo not drawn) [compound 77]	> 200	100 (≈ 281 µM)	> 200	> 200	> 200	3.13	> 200	> 200	200 (≈ 561 µM)	100 (≈ 281 µM)	100 (≈ 281 µM)	> 200	6.25 (≈ 17.5 µM)	> 200	> 200	200 (≈ 561 µM)	> 200	> 200	> 200	> 200	MIC [18]: > 200 µg/mL; MIC [19]: 50 µg/mL (≈ 140 µM); MIC [20]: > 200 µg/mL; MIC [21]: > 200 µg/mL; MIC [22]: > 200 µg/mL; MIC [23]: > 200 µg/mL; MIC [24]: 200 µg/mL (≈ 561 µM); MIC [25]: > 200 µg/mL; MIC (Salmonella typhi 901): > 200 µg/mL; MIC [26]: > 200 µg/mL
